Measured values taken from patent US9353107B2 (Aurigene Discovery Technologies Limited, priority 2012, dated 2016).
Counter-ions that a name gives are not always drawn.

Biological target: T1, recombinant human ALK enzyme (ALK WT) (Homo sapiens, UniProt Q9UM73)
T1 construct: purchased Carna Biosciences 08-518
Assay: ALK WT cell free enzymatic assay (TR-FRET)
Assay type: biochemical
Conditions: 1 μM ATP; for IC50: 10 point dose response; for inhibition at 0.1 µM: compound at 100 nM; for inhibition at 0.1 µM / inhibition at 1 µM: 30 min pre-incubation; for inhibition at 1 µM: compound at 1 μM
Method: ALK Wild Type (WT) The ALK WT cell free assay was set up to evaluate the effects of these compounds as inhibitors of ALK enzyme. The enzymatic assay was standardized using recombinant human ALK enzyme (Cat#08-518) from Carna Biosciences using Ultra Light Poly GT (Cat# TRF 0100D) from Perkin Elmer as a substrate. TR-FRET (Time resolved fluorescence resonance energy transfer) detection technology was used for the read out. The final assay conditions were 50 mM HEPES pH 7.1, 10 mM MgCl2, 2 mM MnCl2, 0.01% BSA, 2.5 mM DTT, 0.1 mM Na3 VO4, 40 nM Ultra Light Poly GT, 2.5 ng ALK WT enzyme, 1 μM ATP and 125 nM Lance Eu-W1024 labeled anti phospho tyrosine antibody (Cat# AD0203, Perkin Elmer) in 384 well format. The assay reaction time with the substrate was 30 minutes after which the antibody detection mix is added. The TR-FRET signal (Excitation at 340 nm, Emission at 615 nm and 665 nm) was read with 50 μs delay time on Victor^3 V fluorimeter. The data is calculated using the ratio of reading at 665 nM to 615 nM. The final concentration of DMSO was 1% in the assay. Compounds were screened at 100 nM and 1 μM concentrations with pre-incubation of the enzymes with compound for 30 minutes. Each individual IC50 was determined using 10 point dose response curve generated by GraphPad Prism software Version 4 (San Diego, Calif., USA) using non linear regression curve fit for sigmoidal dose response (variable slope). Percentage inhibition at concentrations of 100 nM and 1.0 μM are given in table along with the IC50 (nM) details for selected examples.

T1 sequence (Q9UM73 1058-1620 limits assumed): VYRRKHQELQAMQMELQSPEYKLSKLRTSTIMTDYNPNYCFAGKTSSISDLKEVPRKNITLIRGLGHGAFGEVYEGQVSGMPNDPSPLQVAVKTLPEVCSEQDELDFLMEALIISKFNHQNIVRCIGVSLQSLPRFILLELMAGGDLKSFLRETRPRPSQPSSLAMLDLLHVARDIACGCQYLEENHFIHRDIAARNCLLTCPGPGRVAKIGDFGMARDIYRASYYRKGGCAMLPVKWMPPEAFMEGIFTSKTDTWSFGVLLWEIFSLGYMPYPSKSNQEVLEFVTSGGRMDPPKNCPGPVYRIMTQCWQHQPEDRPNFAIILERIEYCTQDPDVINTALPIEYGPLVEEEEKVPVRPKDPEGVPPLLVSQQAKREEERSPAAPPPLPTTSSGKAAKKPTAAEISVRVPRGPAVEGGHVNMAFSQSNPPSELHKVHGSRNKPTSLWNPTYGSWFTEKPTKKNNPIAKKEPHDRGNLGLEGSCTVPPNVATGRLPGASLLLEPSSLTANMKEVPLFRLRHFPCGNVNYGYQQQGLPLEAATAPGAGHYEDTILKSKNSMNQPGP

SMILES | IC50 | inhibition at 0.1 µM | inhibition at 1 µM
Cc1nn(Cc2cccc(F)c2)c(C)c1-c1c[nH]c2ncc(-c3cccc(NC4CCNCC4)c3)cc12 [Example 94, N-(3-(3-(1-(3-fluorobenzyl)-3,5-dimethyl-1H-pyrazol-4-yl)-1H-pyrrolo[2,3-b]pyridin-5-yl)phenyl)piperidin-4-amine] | < 50 nM | 98% | 100%
COc1ccc(-c2cnc3[nH]cc(-c4c(C)nn(Cc5cccc(F)c5)c4C)c3c2)cc1NS(C)(=O)=O [Example 14, N-(5-(3-(1-(3-fluorobenzyl)-3,5-dimethyl-1H-pyrazol-4-yl)-1H-pyrrolo[2,3-b]pyridin-5-yl)-2-methoxyphenyl)methanesulfonamide] | < 50 nM |  | 95%
COc1ccc(-c2cnc3[nH]cc(-c4c(C)nn(Cc5cc(F)cc(F)c5)c4C)c3c2)cc1NS(C)(=O)=O [Example 19] | 50 to 250 nM | 63% | 96%
Cc1nn(Cc2cc(F)cc(F)c2)c(C)c1-c1c[nH]c2nc(C3CC3)c(-c3ccc(N4CCNCC4)cc3)cc12 [Example 60, 6-cyclopropyl-3-(1-(3,5-difluorobenzyl)-3,5-dimethyl-1H-pyrazol-4-yl)-5-(4-(piperazin-1-yl)phenyl)-1H-pyrrolo[2,3-b]pyridine hydrochloride] |  | 9% | 10%
CN1CCN(c2ncc(-c3cnc4[nH]cc(-c5cnn(Cc6cccc(F)c6)c5)c4c3)cc2F)CC1 [Example 179, 5-(5-fluoro-6-(4-methylpiperazin-1-yl)pyridin-3-yl)-3-(1-(3-fluorobenzyl)-1H-pyrazol-4-yl)-1H-pyrrolo[2,3-b]pyridine] | < 50 nM | 92% | 99%
Cc1nn(Cc2cccc(F)c2)c(C)c1-c1c[nH]c2ncc(-c3ccc(N4CCN(CCN(C)C)CC4)cc3)cc12 [Example 57, 2-(4-(4-(3-(1-(3-fluorobenzyl)-3,5-dimethyl-1H-pyrazol-4-yl)-1H-pyrrolo[2,3-b]pyridin-5-yl)phenyl)piperazin-1-yl)-N,N-dimethylethanamine] | < 50 nM | 93% | 100%
c1ccc(CCn2cc(-c3c[nH]c4ncc(-c5ccc(C6CCNCC6)cc5)cc34)cn2)cc1 [Example 88, 3-(1-phenethyl-1H-pyrazol-4-yl)-5-(4-(piperidin-4-yl)phenyl)-1H-pyrrolo[2,3-b]pyridine] | < 50 nM | 89% | 99%
C[C@H](O)CN1CCN(c2ccc(-c3cnc4[nH]cc(-c5cnn(Cc6cccc(F)c6)c5)c4c3)cc2F)CC1 [Example 114, (S)-1-(4-(2-fluoro-4-(3-(1-(3-fluorobenzyl)-1H-pyrazol-4-yl)-1H-pyrrolo[2,3-b]pyridin-5-yl)phenyl)piperazin-1-yl)propan-2-ol] |  | 92% | 99%
Cc1nn(Cc2cccc(F)c2)c(C)c1-c1c[nH]c2ncc(-c3ccc(N4CCN(CCO)CC4)cc3)cc12 [Example 41, 2-(4-(4-(3-(1-(3-fluorobenzyl)-3,5-dimethyl-1H-pyrazol-4-yl)-1H-pyrrolo[2,3-b]pyridin-5-yl)phenyl)piperazin-1-yl)ethanol] | < 50 nM | 90% | 100%
COc1cc(-c2cnc3[nH]cc(-c4cnn(Cc5cccc(F)c5)c4)c3c2)ccc1C1CCNCC1 [Example 86, 3-(1-(3-fluorobenzyl)-1H-pyrazol-4-yl)-5-(3-methoxy-4-(piperidin-4-yl)phenyl)-1H-pyrrolo[2,3-b]pyridine] | < 50 nM | 96% | 98%
Fc1cc(F)cc(Cn2cc(-c3c[nH]c4ncc(-c5ccc(N6CCNCC6)nc5)cc34)cn2)c1 [Example 134, 3-(1-(3,5-difluorobenzyl)-1H-pyrazol-4-yl)-5-(6-(piperazin-1-yl)pyridin-3-yl)-1H-pyrrolo[2,3-b]pyridine] | < 50 nM | 97% | 100%
CNS(=O)(=O)c1cc(-c2cnc3[nH]cc(-c4c(C)nn(Cc5cc(F)cc(F)c5)c4C)c3c2)ccc1OC [Example 21, (3-(1-(3,5-difluorobenzyl)-3,5-dimethyl-1H-pyrazol-4-yl)-1H-pyrrolo[2,3-b]pyridin-5-yl)-2-methoxy-N-methylbenzenesulfonamide] | < 50 nM | 82% | 96%
C[C@H](O)CN1CCC(c2ccc(-c3cnc4[nH]cc(-c5cnn(Cc6cccc(F)c6)c5)c4c3)cn2)CC1 [Example 102A, (S)-1-(4-(5-(3-(1-(3-fluorobenzyl)-1H-pyrazol-4-yl)-1H-pyrrolo[2,3-b]pyridin-5-yl)pyridin-2-yl)piperidin-1-yl)propan-2-ol] | < 50 nM | 91% | 94%
NC(=O)CN1CCN(c2ccc(-c3cnc4[nH]cc(-c5cnn(Cc6cccc(F)c6)c5)c4c3)cn2)CC1 [Example 139, 2-(4-(5-(3-(1-(3-fluorobenzyl)-1H-pyrazol-4-yl)-1H-pyrrolo[2,3-b]pyridin-5-yl)pyridin-2-yl)piperazin-1-yl)acetamide] | < 50 nM | 99% | 100%
COc1ccc(-c2cnc3[nH]c(C4CC4)c(-c4c(C)nn(Cc5cccc(F)c5)c4C)c3c2)cc1NS(C)(=O)=O [Example 30, N-(5-(2-cyclopropyl-3-(1-(3-fluorobenzyl)-3,5-dimethyl-1H-pyrazol-4-yl)-1H-pyrrolo[2,3-b]pyridin-5-yl)-2-methoxyphenyl)methanesulfonamide] |  | 21% | 21%
C[C@H](O)CN1CCN(c2ccc(-c3cnc4[nH]cc(-c5cnn(Cc6cccc(F)c6)c5)c4c3)nc2)CC1 [Example 146, (S)-1-(4-(6-(3-(1-(3-fluorobenzyl)-1H-pyrazol-4-yl)-1H-pyrrolo[2,3-b]pyridin-5-yl)pyridin-3-yl)piperazin-1-yl)propan-2-ol] | 50 to 250 nM | 60% | 97%
OCCN1CCN(c2ccc(-c3cnc4[nH]cc(-c5cnn(Cc6cccc(F)c6)c5)c4c3)cn2)CC1 [Example 142, 2-(4-(5-(3-(1-(3-fluorobenzyl)-1H-pyrazol-4-yl)-1H-pyrrolo[2,3-b]pyridin-5-yl)pyridin-2-yl)piperazin-1-yl)ethanol] |  | 94% | 100%
COc1ccc(Cn2cc(-c3c[nH]c4ncc(-c5cccc(NS(C)(=O)=O)c5)cc34)cn2)cc1 [Example 3, N-(3-(3-(1-(4-methoxybenzyl)-1H-pyrazol-4-yl)-1H-pyrrolo[2,3-b]pyridin-5-yl)phenyl)n methane sulfonamide] | > 250 nM |  | 65%
Fc1cc(F)cc(Cn2cc(-c3c[nH]c4ncc(-c5ccc(C6CCNCC6)c(F)c5)cc34)cn2)c1 [Example 169, 3-(1-(3,5-difluorobenzyl)-1H-pyrazol-4-yl)-5-(3-fluoro-4-(piperidin-4-yl)phenyl)-1H-pyrrolo[2,3-b]pyridine] | < 50 nM | 99% | 100%
c1ccc(CCn2cc(-c3c[nH]c4ncc(-c5cccc(NC6CCNCC6)c5)cc34)cn2)cc1 [Example 95, N-(3-(3-(1-phenethyl-1H-pyrazol-4-yl)-1H-pyrrolo[2,3-b]pyridin-5-yl)phenyl)piperidin-4-amine] | 50 to 250 nM | 83% | 99%
